Test results as given in paper PMC11012124, “Synthesis of Novel Triazine-Based Chalcones and 8,9-dihydro-7H-pyrimido[4,5-b][1,4]diazepines as Potential Leads in the Search of Anticancer, Antibacterial and Antifungal Agents” (International Journal of Molecular Sciences, 2024).

Key:
Test in all cases: cells
[1] = test system: CCRF-CEM; conditions: Homo sapiens, 48 h; for CC50: read-out: LC50
[2] = test system: HL-60(TB); conditions: Homo sapiens, HL-60, 48 h; for CC50: read-out: LC50
[3] = test system: K-562; conditions: Homo sapiens, K562, 48 h; for GI50: K-562, 48 h; for CC50: read-out: LC50
[4] = test system: EKVX; conditions: Homo sapiens, 48 h; for CC50: read-out: LC50
[5] = test system: HOP-62; conditions: Homo sapiens, HOP-62, 48 h; for CC50: read-out: LC50
[6] = test system: NCI-H322M; conditions: Homo sapiens, 48 h; for CC50: read-out: LC50
[7] = test system: NCI-H460; conditions: Homo sapiens, NCI-H460, 48 h; for CC50: read-out: LC50
[8] = test system: COLO 205; conditions: Homo sapiens, COLO 205, 48 h; for CC50: read-out: LC50
[9] = test system: HCC-2998; conditions: Homo sapiens, HCC 2998, 48 h; for CC50: read-out: LC50
[10] = test system: HCT-15; conditions: Homo sapiens, HCT-15, 48 h; for CC50: read-out: LC50
[11] = test system: HT29; conditions: Homo sapiens, HT-29, 48 h; for CC50: read-out: LC50
[12] = test system: KM12; conditions: Homo sapiens, KM12, 48 h; for CC50: read-out: LC50
[13] = test system: SF-268; conditions: Homo sapiens, SF-268, 48 h; for CC50: read-out: LC50
[14] = test system: SF-295; conditions: Homo sapiens, SF-295, 48 h; for CC50: read-out: LC50
[15] = test system: SF-539; conditions: Homo sapiens, SF-539, 48 h; for CC50: read-out: LC50, SF-539, 48 h
[16] = test system: MALME-3M; conditions: Homo sapiens, 48 h; for CC50: read-out: LC50
[17] = test system: M14; conditions: Homo sapiens, M14, 48 h; for CC50: read-out: LC50
[18] = test system: SK-MEL-28; conditions: Homo sapiens, SK-MEL-28, 48 h; for CC50: read-out: LC50
[19] = test system: SK-MEL-5; conditions: Homo sapiens, SK-MEL-5, 48 h; for CC50: read-out: LC50
[20] = test system: UACC-257; conditions: Homo sapiens, UACC-257, 48 h; for CC50: read-out: LC50
[21] = test system: UACC-62; conditions: Homo sapiens, UACC-62, 48 h; for CC50: read-out: LC50
[22] = test system: OVCAR-3; conditions: Homo sapiens, OVCAR-3, 48 h; for CC50: read-out: LC50
[23] = test system: OVCAR-4; conditions: Homo sapiens, OVCAR-4, 48 h; for CC50: read-out: LC50
[24] = test system: OVCAR-5; conditions: Homo sapiens, OVCAR-5, 48 h; for CC50: read-out: LC50
[25] = test system: OVCAR-8; conditions: Homo sapiens, OVCAR-8, 48 h; for CC50: read-out: LC50
[26] = test system: SK-OV-3; conditions: Homo sapiens, SK-OV-3, 48 h; for CC50: read-out: LC50
[27] = test system: 786-0; conditions: Homo sapiens, 786-0, 48 h; for CC50: read-out: LC50
[28] = test system: A498; conditions: Homo sapiens, A498, 48 h; for CC50: read-out: LC50
[29] = test system: CAKI-1; conditions: Homo sapiens, CAKI-1, 48 h; for CC50: read-out: LC50
[30] = test system: RXF 393; conditions: Homo sapiens, RXF 393, 48 h; for CC50: read-out: LC50
[31] = test system: SN12C; conditions: Homo sapiens, 48 h; for CC50: read-out: LC50
[32] = test system: TK-10; conditions: Homo sapiens, TK-10, 48 h; for CC50: read-out: LC50
[33] = test system: UO-31; conditions: Homo sapiens, UO-31, 48 h; for CC50: read-out: LC50
[34] = test system: MCF7; conditions: Homo sapiens, MCF7, 48 h; for CC50: read-out: LC50
[35] = test system: HS 578T; conditions: Homo sapiens, 48 h; for CC50: read-out: LC50
[36] = test system: MDA-MB-468; conditions: Homo sapiens, MDA-MB-468, 48 h; for CC50: read-out: LC50

## CN(C)c1nc(NCCNS(=O)(=O)c2ccc(C(=O)/C=C/c3ccc(C(F)(F)F)cc3)cc2)nc(N2CCOCC2)n1 [23g]
[1]
  GI50: 3.2 µM
  CC50: > 100 µM
[2]
  GI50: 5.12 µM
  CC50: > 100 µM
[3]
  GI50: 3.21 µM
  CC50: > 100 µM
[4]
  GI50: 14.3 µM
  CC50: 52.5 µM
[5]
  GI50: 17 µM
  CC50: 61.3 µM
[6]
  GI50: 14.2 µM
  CC50: 52.1 µM
[7]
  GI50: 16.1 µM
  CC50: 65.6 µM
[8]
  GI50: 15 µM
  CC50: 69.8 µM
[9]
  GI50: 12.9 µM
  CC50: 52.5 µM
[10]
  GI50: 1.86 µM
  CC50: 7.07 µM
[11]
  GI50: 2.06 µM
  CC50: 9.88 µM
[12]
  GI50: 8.95 µM
  CC50: 68.3 µM
[13]
  GI50: 16.3 µM
  CC50: 87.9 µM
[14]
  GI50: 8.11 µM
  CC50: 45.4 µM
[15]
  GI50: 13 µM
  CC50: 50.7 µM
[16]
  GI50: 14.4 µM
  CC50: 53 µM
[17]
  GI50: 9.83 µM
  CC50: 49.5 µM
[18]
  GI50: 14.4 µM
  CC50: 52.6 µM
[19]
  GI50: 15.8 µM
  CC50: 54.9 µM
[20]
  GI50: 15.3 µM
  CC50: 56.5 µM
[21]
  GI50: 11.2 µM
  CC50: 48.5 µM
[22]
  GI50: 16.4 µM
  CC50: 57.3 µM
[23]
  GI50: 14.8 µM
  CC50: 56.5 µM
[24]
  GI50: 14.5 µM
  CC50: 53 µM
[25]
  GI50: 14.4 µM
  CC50: 54.9 µM
[26]
  GI50: 14.7 µM
  CC50: 59 µM
[27]
  GI50: 14.5 µM
  CC50: 54.9 µM
[28]
  GI50: 13.3 µM
  CC50: 53 µM
[29]
  GI50: 11.4 µM
  CC50: 51.7 µM
[30]
  GI50: 11.5 µM
  CC50: 49 µM
[31]
  GI50: 12.5 µM
  CC50: 50 µM
[32]
  GI50: 15.5 µM
  CC50: 56 µM
[33]
  GI50: 11.9 µM
  CC50: 49.2 µM
[34]
  GI50: 1.68 µM
  CC50: 6.63 µM
[35]
  GI50: 17.8 µM
  CC50: > 100 µM
[36]
  GI50: 5.11 µM
  CC50: 48.8 µM

## CN(C)c1nc(NCCNS(=O)(=O)c2ccc(C(=O)/C=C/c3ccc(F)cc3)cc2)nc(N2CCOCC2)n1 [23f]
[1]
  GI50: 6.58 µM
  CC50: > 100 µM
[2]
  GI50: 14.7 µM
  CC50: > 100 µM
[3]
  GI50: 3.7 µM
  CC50: > 100 µM
[4]
  GI50: 14.4 µM
  CC50: 53.8 µM
[5]
  GI50: 16.1 µM
  CC50: 61.8 µM
[6]
  GI50: 13.2 µM
  CC50: 50.9 µM
[7]
  GI50: 15.7 µM
  CC50: 69.4 µM
[8]
  GI50: 14.6 µM
  CC50: 62.4 µM
[9]
  GI50: 16 µM
  CC50: 56 µM
[10]
  GI50: 2.15 µM
  CC50: 13.7 µM
[11]
  GI50: 2.84 µM
  CC50: 32.3 µM
[12]
  GI50: 13.4 µM
  CC50: 70.3 µM
[13]
  GI50: 15 µM
  CC50: 94 µM
[14]
  GI50: 11.3 µM
  CC50: 50.1 µM
[15]
  GI50: 13.2 µM
  CC50: 51.1 µM
[16]
  GI50: 14.6 µM
  CC50: 54.4 µM
[17]
  GI50: 15 µM
  CC50: 62.2 µM
[18]
  GI50: 14.9 µM
  CC50: 53.4 µM
[19]
  GI50: 15.7 µM
  CC50: 54.4 µM
[20]
  GI50: 15.5 µM
  CC50: 54.9 µM
[21]
  GI50: 10.8 µM
  CC50: 49.1 µM
[22]
  GI50: 14.6 µM
  CC50: 55.7 µM
[23]
  GI50: 11.9 µM
  CC50: 51.1 µM
[24]
  GI50: 13.6 µM
  CC50: 52.6 µM
[25]
  GI50: 14.7 µM
  CC50: 54 µM
[26]
  GI50: 13.8 µM
  CC50: 55.5 µM
[27]
  GI50: 14.5 µM
  CC50: 57 µM
[28]
  GI50: 11.9 µM
  CC50: 49.9 µM
[29]
  GI50: 9.5 µM
  CC50: 48.6 µM
[30]
  GI50: 8.82 µM
  CC50: 46.5 µM
[31]
  GI50: 12 µM
  CC50: 50 µM
[32]
  GI50: 15.3 µM
  CC50: 53.8 µM
[33]
  GI50: 11 µM
  CC50: 47.9 µM
[34]
  GI50: 2.99 µM
  CC50: 46.7 µM
[35]
  GI50: 14.6 µM
  CC50: > 100 µM
[36]
  GI50: 8.08 µM
  CC50: 54.7 µM
